Experimental data reported in patent publication US20240158446A1, “CYCLIC COMPOUND HAVING SELECTIVE INHIBITORY ACTION ON KRAS OVER HRAS AND NRAS” (CHUGAI SEIYAKU KABUSHIKI KAISHA, priority 2021, published 2024).
Where a SMILES comes first, the peptide text is derived from it. Bridges are numbered along the chain shown (N, C = ends). [ ]: non-standard residue; d: D form. hPhe(3-Cl-4-CF3) = N[C@@H](CCc1ccc(C(F)(F)F)c(Cl)c1)C(=O)O; NPrPhe(4-CF3) = CCCN[C@@H](Cc1ccc(C(F)(F)F)cc1)C(=O)O; NMeNva(3-Et) = CCC(CC)[C@H](NC)C(=O)O; NMeD = CN[C@@H](CC(=O)O)C(=O)O; NMeL = CN[C@@H](CC(C)C)C(=O)O; Ac4c = NC1(C(=O)O)CCC1; Sar = CNCC(=O)O

Legend:
[1] = target: GDP-bound NRAS wild-type protein (Homo sapiens, UniProt P01111); test: Binding to NRAS by surface plasmon resonance (SPR), Single Cycle Kinetics; settings: ratio of KD for GDP-bound NRAS wild-type protein to KD for KRAS, SPR
[2] = system: human lung cancer strain NCI-H441; test: cells; settings: NCI-H441, 96 h, read-out: NCI-H441 IC50 (nM), NCI-H441 cell proliferation, 4 days, CellTiter-Glo;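 further: cell proliferation inhibition after four days measured by CellTiter-Glo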
[3] = target: GDP-bound KRAS wild-type protein (Homo sapiens, UniProt P01116); test: Binding to KRAS by surface plasmon resonance (SPR), Single Cycle Kinetics; settings: SPR, Single Cycle Kinetics, GDP-bound KRAS wild-type protein; read-out: KRAS KD
[4] = target: GDP-bound HRAS wild-type protein (Homo sapiens, UniProt P01112); test: Binding to HRAS by surface plasmon resonance (SPR), Single Cycle Kinetics; settings: ratio of KD for GDP-bound HRAS wild-type protein to KD for KRAS, SPR
Chain of GDP-bound HRAS wild-type protein (P01112 whole entry): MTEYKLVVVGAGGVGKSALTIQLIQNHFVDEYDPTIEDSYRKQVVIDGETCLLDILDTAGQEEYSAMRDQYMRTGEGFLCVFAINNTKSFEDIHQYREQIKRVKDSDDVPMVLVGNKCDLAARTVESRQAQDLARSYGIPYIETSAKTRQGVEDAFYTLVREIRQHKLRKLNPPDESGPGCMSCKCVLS

Chain of GDP-bound NRAS wild-type protein (P01111 whole entry): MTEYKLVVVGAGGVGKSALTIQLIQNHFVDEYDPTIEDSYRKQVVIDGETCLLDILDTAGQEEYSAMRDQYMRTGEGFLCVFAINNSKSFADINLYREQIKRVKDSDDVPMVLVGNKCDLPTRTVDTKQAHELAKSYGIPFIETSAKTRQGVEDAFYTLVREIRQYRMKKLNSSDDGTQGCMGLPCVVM
Chain of GDP-bound KRAS wild-type protein (P01116 whole entry): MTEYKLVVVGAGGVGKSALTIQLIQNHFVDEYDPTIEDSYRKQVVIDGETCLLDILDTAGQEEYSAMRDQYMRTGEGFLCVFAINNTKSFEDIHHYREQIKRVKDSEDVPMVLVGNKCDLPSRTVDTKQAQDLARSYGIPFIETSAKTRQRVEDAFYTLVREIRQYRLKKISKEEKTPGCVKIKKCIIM

IC50 [2] [nM]	Kd [3] [nM]	Compound	NRAS/KRAS (KD ratio) [1]	HRAS/KRAS (KD ratio) [4]
26.2	0.27	CC[C@H](C)[C@@H]1NC(=O)[C@H](CC)N(C)C(=O)C[C@@H](C(=O)N(C)C)N(C)C(=O)[C@H](C2CCCC2)N(C)C(=O)C2(CCCC2)N(C)C(=O)[C@@H]2C[C@@H](C)CN2C(=O)[C@H](CCc2cc(F)c(C(F)(F)F)c(F)c2)NC(=O)CN(C)C(=O)[C@H](Cc2ccc(C)cc2)N2CC/C=C\C[C@@H](C2=O)N(C)C(=O)[C@@H]2CCCN2C1=O [PP1814]	A (a compound having 10 or more and less than 20 is denoted as A)	A (a compound having 10 or more and less than 20 is denoted as A)
15.6	0.2	CC[C@H](C)[C@@H]1NC(=O)[C@H](CC(F)F)N(C)C(=O)C[C@@H](C(=O)N(C)CC)N(C)C(=O)[C@H](C2CCCC2)N(C)C(=O)C2(CC(C)(C)C2)NC(=O)[C@@H]2C[C@@H](C)CN2C(=O)[C@H](CCc2ccc(C(F)(F)F)c(Cl)c2)NC(=O)CN(C)C(=O)[C@H](Cc2ccc(C)cc2)N2CC/C=C\C[C@@H](C2=O)N(C)C(=O)CN(C)C1=O [PP1837]	A (a compound having 10 or more and less than 20 is denoted as A)	A (a compound having 10 or more and less than 20 is denoted as A)
10.2	0.064	CC[C@H](C)[C@@H]1NC(=O)[C@H](CC(C)C)N(C)C(=O)C[C@@H](C(=O)N(C)C)N(C)C(=O)[C@H](C2CCCC2)N(C)C(=O)C2(CCC2)NC(=O)[C@@H]2C[C@H](C)CN2C(=O)[C@H](CCc2cc(F)c(C(F)(F)F)c(F)c2)NC(=O)CN(C)C(=O)[C@H](Cc2ccc(C)cc2)N2CC/C=C\C[C@@H](C2=O)N(C)C(=O)CN(C)C1=O [PP1864]	A (a compound having 10 or more and less than 20 is denoted as A)	B (a compound having 3 or more and less than 10 is denoted as B)
22.6	0.089	CCOC[C@H]1C(=O)N[C@@H]([C@@H](C)CC)C(=O)N(C)CC(=O)N(C)[C@H]2C/C=C\CCN(C2=O)[C@@H](Cc2ccc(C(F)(F)F)cc2)C(=O)N(C)CC(=O)N[C@@H](CCc2ccc(C(F)(F)F)c(OC)c2)C(=O)N2C[C@@H](C)C[C@H]2C(=O)NC2(CCC2)C(=O)N(C)[C@@H](C2CCCC2)C(=O)N(C)[C@H](C(=O)N(C)CC)CC(=O)N1C [PP2026]	A (a compound having 10 or more and less than 20 is denoted as A)	A (a compound having 10 or more and less than 20 is denoted as A)
6.6	0.14	CCO[C@@H]1C[C@H]2C(=O)NC3(CCC3)C(=O)N(C)[C@@H](C3CCCC3)C(=O)N(C)[C@H](C(=O)N(C)CC)CC(=O)N(C)[C@@H](C(C)C)C(=O)N[C@@H]([C@@H](C)CC)C(=O)N(C)CC(=O)N(C)[C@H]3C/C=C\CCN(C3=O)[C@@H](Cc3ccc(C(F)(F)F)cc3)C(=O)N(C)CC(=O)N[C@@H](CCc3cc(F)c(C(F)(F)F)c(F)c3)C(=O)N2C1 [PP1990]	A (a compound having 10 or more and less than 20 is denoted as A)	A (a compound having 10 or more and less than 20 is denoted as A)
6	0.17	CCCN1C(=O)CN(C)C(=O)CN(C)C(=O)[C@H]([C@@H](C)CC)NC(=O)[C@H](CC(C)C)N(C)C(=O)C[C@@H](C(=O)N(C)C)N(C)C(=O)[C@H](C(CC)CC)N(C)C(=O)C2(CCC2)NC(=O)[C@@H]2CCCN2C(=O)[C@H](CCc2ccc(C(F)(F)F)c(Cl)c2)NC(=O)CN(C)C(=O)[C@@H]1Cc1ccc(C(F)(F)F)cc1 [PP1960] ([NMeL]I[Sar][Sar][NPrPhe(4-CF3)][Sar][hPhe(3-Cl-4-CF3)]P[Ac4c][NMeNva(3-Et)][NMeD]-NMe2; lactam N-11)	B (a compound having 3 or more and less than 10 is denoted as B)	C (A compound having a KD ratio of 0.1 or more and less than 3 is denoted as C)

The remaining lines, values behind:

Compound	IC50 [2] [nM]	Kd [3] [nM]	NRAS/KRAS (KD ratio) [1]	HRAS/KRAS (KD ratio) [4]
CCC[C@H]1C(=O)N[C@@H]([C@@H](C)CC)C(=O)N(C)CC(=O)N(C)[C@H]2C/C=C\CCN(C2=O)[C@@H](Cc2ccc(C(F)(F)F)cc2)C(=O)N(C)CC(=O)N[C@@H](CCc2cc(F)c(Cl)c(F)c2)C(=O)N2C[C@H](OCC)C[C@H]2C(=O)NC2(CC(C)(C)C2)C(=O)N(C)[C@@H](C2CCCC2)C(=O)N(C)[C@H](C(=O)N(C)C)CC(=O)N1C [PP1758]	6	0.19	AA (a compound having 20 or more is denoted as AA)	A (a compound having 10 or more and less than 20 is denoted as A)
CCO[C@@H]1C[C@H]2C(=O)NC3(CC(C)(C)C3)C(=O)N(C)[C@@H](C3CCCC3)C(=O)N(C)[C@H](CC)CC(=O)N(C)[C@@H](CC)C(=O)N[C@@H]([C@@H](C)CC)C(=O)N(C)CC(=O)N(C)[C@H]3C/C=C\CCN(C3=O)[C@@H](Cc3ccc(C(F)(F)F)cc3)C(=O)N(C)CC(=O)N[C@@H](CCc3cc(F)c(C(F)(F)F)c(F)c3)C(=O)N2C1 [PP1623]	4.5	0.19	A (a compound having 10 or more and less than 20 is denoted as A)	A (a compound having 10 or more and less than 20 is denoted as A)
CCCN(C)C(=O)[C@@H]1CC(=O)N(C)[C@@H](CC2CC2)C(=O)N[C@@H]([C@@H](C)CC)C(=O)N(C)CC(=O)N(C)[C@H]2C/C=C\CCN(C2=O)[C@@H](Cc2ccc(C(F)(F)F)cc2)C(=O)N(C)CC(=O)N[C@@H](CCc2cc(F)c(C(F)(F)F)c(F)c2)C(=O)N2C[C@H](F)C[C@H]2C(=O)NC2(CC(C)(C)C2)C(=O)N(C)[C@@H](C2CCCC2)C(=O)N1C [PP1665]	3.1	0.066	AA (a compound having 20 or more is denoted as AA)	A (a compound having 10 or more and less than 20 is denoted as A)
CCC[C@H]1C(=O)N[C@@H]([C@@H](C)CC)C(=O)N(C)CC(=O)N(C)[C@H]2C/C=C\CCN(C2=O)[C@@H](Cc2ccc(C(F)(F)F)cc2)C(=O)N(C)CC(=O)N[C@@H](CCc2ccc(C(F)(F)F)c(Cl)c2)C(=O)N2C[C@H](OCC)C[C@H]2C(=O)NC2(CC(C)(C)C2)C(=O)N(C)[C@@H](C2CCCC2)C(=O)N(C)[C@H](C(=O)N(C)C)CC(=O)N1C [PP1748]	3.1	0.062	A (a compound having 10 or more and less than 20 is denoted as A)	B (a compound having 3 or more and less than 10 is denoted as B)
CCCN(C)C(=O)[C@@H]1CC(=O)N(C)[C@@H](CC(F)F)C(=O)N[C@@H]([C@@H](C)CC)C(=O)N(C)CC(=O)N(C)[C@H]2C/C=C\CCN(C2=O)[C@@H](Cc2ccc(C(F)(F)F)cc2)C(=O)N(C)CC(=O)N[C@@H](CCc2cc(F)c(C(F)(F)F)c(F)c2)C(=O)N2C[C@H](OCC)C[C@H]2C(=O)NC2(CC(F)(F)C2)C(=O)N(C)[C@@H](C2CCCC2)C(=O)N1C [PP1733]	3.8	0.11	A (a compound having 10 or more and less than 20 is denoted as A)	A (a compound having 10 or more and less than 20 is denoted as A)
CCCOC[C@H]1C(=O)N[C@@H]([C@@H](C)CC)C(=O)N(C)CC(=O)N(C)[C@H]2C/C=C\CCN(C2=O)[C@@H](Cc2ccc(C(F)(F)F)cc2)C(=O)N(C)CC(=O)N[C@@H](CCc2cc(F)c(C(F)(F)F)c(F)c2)C(=O)N2C[C@H](F)C[C@H]2C(=O)NC2(CC(C)(C)C2)C(=O)N(C)[C@@H](C2CCCC2)C(=O)N(C)[C@H](C(=O)N(C)CC)CC(=O)N1C [PP1697]	3.6	0.047	A (a compound having 10 or more and less than 20 is denoted as A)	A (a compound having 10 or more and less than 20 is denoted as A)
CCO[C@@H]1C[C@H]2C(=O)N(C)C3(CCC3)C(=O)N(C)[C@@H](C3CCCC3)C(=O)N(C)[C@H](C(=O)N(C)C)CC(=O)N(C)[C@@H](CC)C(=O)N[C@@H]([C@@H](C)CC)C(=O)N3CCC[C@H]3C(=O)N(C)[C@H]3C/C=C\CCN(C3=O)[C@@H](Cc3ccc(C)cc3)C(=O)N(C)CC(=O)N[C@@H](CCc3cc(F)c(C(F)(F)F)c(F)c3)C(=O)N2C1 [PP1785]	6.9	0.051	A (a compound having 10 or more and less than 20 is denoted as A)	A (a compound having 10 or more and less than 20 is denoted as A)
CCO[C@@H]1C[C@H]2C(=O)NC3(CC(C)(C)C3)C(=O)N(C)[C@@H](C3CCCC3)C(=O)N(C)[C@H](C(=O)N(C)CC)CC(=O)N(C)[C@@H](CC3CC3)C(=O)N[C@@H]([C@@H](C)CC)C(=O)N(C)CC(=O)N(C)[C@H]3C/C=C\CCN(C3=O)[C@@H](Cc3ccc(C(F)(F)F)cc3)C(=O)N(C)CC(=O)N[C@@H](CCc3cc(F)c(C(F)(F)F)c(F)c3)C(=O)N2C1 [PP1648]	2.1	0.11	A (a compound having 10 or more and less than 20 is denoted as A)	A (a compound having 10 or more and less than 20 is denoted as A)
CCC[C@H]1C(=O)N[C@@H]([C@@H](C)CC)C(=O)N(C)CC(=O)N(C)[C@H]2C/C=C\CCN(C2=O)[C@@H](Cc2ccc(C(F)(F)F)cc2)C(=O)N(C)CC(=O)N[C@@H](CCc2cc(F)c(C(F)(F)F)c(F)c2)C(=O)N2C[C@H](OCC)C[C@H]2C(=O)NC2(CC(C)(C)C2)C(=O)N(C)[C@@H](C2CCCC2)C(=O)N(C)[C@H](C(=O)N(C)C)CC(=O)N1C [PP1645]	1.8	0.04	A (a compound having 10 or more and less than 20 is denoted as A)	A (a compound having 10 or more and less than 20 is denoted as A)
